We go through 27 compounds from patent US9539260B2, “Dihydro-benzo-oxazine and dihydro-pyrido-oxazine derivatives” (Novartis AG, priority 2012, dated 2017).

One experiment concerns the target PI3K delta (Homo sapiens (Human), UniProt O00329). Briefly: Enzymatic PI3K delta isoform inhibition (lipid kinase activity, Kinase-Glo luminescence). To be noted: Enzymatic assay. The format is biochemical. The method, boiled down: (§1)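 ATP-depletion format: 10 nM PI3K with 5 μg/mL phosphatidylinositol and 2 μM ATP, run to ~50% ATP consumption, then Kinase-Glo added and remaining ATP read by luminescence after 5 min. IC50 from 4-parameter logistic fit, typically over 8 concentrations 10–0.003 μM.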

A further experiment deals with PI3K alpha (Homo sapiens (Human), UniProt P42336). Nature of the experiment: Enzymatic PI3K alpha isoform inhibition (lipid kinase activity, Kinase-Glo luminescence). To be noted: Enzymatic assay. The format is biochemical. The method in brief: as §1
PI3K alpha, sequence (P42336 other isoform, or with tags, fused parts or gaps): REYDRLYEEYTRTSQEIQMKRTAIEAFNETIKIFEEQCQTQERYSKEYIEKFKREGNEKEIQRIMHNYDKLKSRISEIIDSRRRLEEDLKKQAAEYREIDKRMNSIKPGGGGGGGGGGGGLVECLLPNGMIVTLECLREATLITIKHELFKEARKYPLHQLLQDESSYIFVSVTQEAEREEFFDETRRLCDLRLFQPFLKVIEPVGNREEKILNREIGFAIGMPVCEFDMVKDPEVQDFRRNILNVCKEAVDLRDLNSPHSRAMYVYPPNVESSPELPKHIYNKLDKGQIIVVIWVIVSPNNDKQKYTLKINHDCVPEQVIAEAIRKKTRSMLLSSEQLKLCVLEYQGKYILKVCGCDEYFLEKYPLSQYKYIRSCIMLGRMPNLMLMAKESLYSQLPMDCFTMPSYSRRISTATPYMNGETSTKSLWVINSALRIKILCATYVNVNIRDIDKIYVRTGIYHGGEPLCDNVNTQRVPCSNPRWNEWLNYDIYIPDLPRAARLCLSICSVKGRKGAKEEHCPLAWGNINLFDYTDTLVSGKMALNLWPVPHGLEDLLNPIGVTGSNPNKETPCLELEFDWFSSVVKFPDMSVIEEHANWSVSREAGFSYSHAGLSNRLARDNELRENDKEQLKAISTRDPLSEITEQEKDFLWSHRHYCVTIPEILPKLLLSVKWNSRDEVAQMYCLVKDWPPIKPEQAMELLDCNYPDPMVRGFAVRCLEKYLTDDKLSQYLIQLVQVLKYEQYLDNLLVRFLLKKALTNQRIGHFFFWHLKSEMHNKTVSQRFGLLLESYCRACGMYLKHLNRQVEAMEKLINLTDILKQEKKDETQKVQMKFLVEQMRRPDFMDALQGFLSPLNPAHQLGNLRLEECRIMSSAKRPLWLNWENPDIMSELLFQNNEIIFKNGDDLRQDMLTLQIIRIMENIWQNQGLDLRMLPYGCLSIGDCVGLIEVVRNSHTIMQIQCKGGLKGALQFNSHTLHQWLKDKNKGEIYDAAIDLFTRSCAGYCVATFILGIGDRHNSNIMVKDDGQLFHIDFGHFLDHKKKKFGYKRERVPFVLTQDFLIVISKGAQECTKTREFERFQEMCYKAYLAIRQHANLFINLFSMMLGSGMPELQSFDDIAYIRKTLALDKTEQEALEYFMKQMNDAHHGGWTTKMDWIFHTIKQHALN
A general note: In Kinase-Glo more light means more ATP remaining.

pIC50: −log10 of the molar value.

PI3K delta, sequence (O00329 other isoform, or with tags, fused parts or gaps linker GGGGGG): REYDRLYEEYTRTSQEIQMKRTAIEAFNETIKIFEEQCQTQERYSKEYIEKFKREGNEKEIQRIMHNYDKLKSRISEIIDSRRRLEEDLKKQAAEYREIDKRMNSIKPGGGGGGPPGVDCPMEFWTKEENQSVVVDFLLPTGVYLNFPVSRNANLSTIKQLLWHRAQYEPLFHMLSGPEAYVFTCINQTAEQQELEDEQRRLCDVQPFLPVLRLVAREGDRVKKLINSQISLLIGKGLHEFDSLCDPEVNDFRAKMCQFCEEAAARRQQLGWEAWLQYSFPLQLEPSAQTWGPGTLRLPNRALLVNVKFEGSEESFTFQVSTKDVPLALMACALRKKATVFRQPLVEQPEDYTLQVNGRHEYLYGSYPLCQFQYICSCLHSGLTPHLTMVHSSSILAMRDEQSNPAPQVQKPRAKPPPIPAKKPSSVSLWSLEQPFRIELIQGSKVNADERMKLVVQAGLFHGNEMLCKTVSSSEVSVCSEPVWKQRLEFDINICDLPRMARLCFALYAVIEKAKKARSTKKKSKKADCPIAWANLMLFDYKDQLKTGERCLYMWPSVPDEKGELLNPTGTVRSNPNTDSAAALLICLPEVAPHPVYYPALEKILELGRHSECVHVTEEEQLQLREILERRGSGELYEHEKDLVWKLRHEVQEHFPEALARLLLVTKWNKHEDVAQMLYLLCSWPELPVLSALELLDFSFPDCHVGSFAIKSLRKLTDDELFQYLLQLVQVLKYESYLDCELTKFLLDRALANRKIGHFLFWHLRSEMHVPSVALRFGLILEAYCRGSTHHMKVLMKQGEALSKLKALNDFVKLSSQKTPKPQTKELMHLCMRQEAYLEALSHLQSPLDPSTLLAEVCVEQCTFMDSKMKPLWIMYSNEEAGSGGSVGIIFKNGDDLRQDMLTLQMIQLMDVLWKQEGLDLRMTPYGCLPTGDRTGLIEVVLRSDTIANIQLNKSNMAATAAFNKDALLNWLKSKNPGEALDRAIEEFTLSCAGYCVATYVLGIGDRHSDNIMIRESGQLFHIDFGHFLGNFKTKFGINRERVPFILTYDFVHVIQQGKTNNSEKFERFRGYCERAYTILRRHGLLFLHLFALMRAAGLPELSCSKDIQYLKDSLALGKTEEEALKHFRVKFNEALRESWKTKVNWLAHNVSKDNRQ

For orientation: pIC50 means the IC50 on a negative log10 scale, so that one unit is a factor of ten. For `CS(=O)(=O)c1ncc(N2CCOc3ccc(O[C@H]4CCN(C(=O)[C@H]5CCOC5)C4)cc32)cc1C(F)F` [Example B76, {(S)-3-[4-(5-Difluoromethyl-6-methanesulfonyl-pyridin-3-yl)-3,4-dihydro-2H-benzo[1,4]oxazin-6-yloxy]-pyrrolidin-1-yl}-(S)-tetrahydro-furan-3-yl-methanone], the pIC50 was 7.21 against PI3K delta and 6.40 on PI3K alpha.

For the compound `COc1cc(N2CCOc3ccc(O[C@H]4CCN(C(=O)C5CCOCC5)C4)cc32)cnc1Cl` [Example B54, {(S)-3-[4-(6-Chloro-5-methoxy-pyridin-3-yl)-3,4-dihydro-2H-benzo[1,4]oxazin-6-yloxy]-pyrrolidin-1-yl}-(tetrahydro-pyran-4-yl)-methanone], the pIC50 at PI3K delta was 7.96; at PI3K alpha, 6.12.

Consider `COc1ncc(N2CCOc3ccc(O[C@H]4CCN(C(=O)C5CCN(C(C)=O)CC5)C4)cc32)cc1C#N` [Example D5, 5-{6-[(S)-1-(1-Acetyl-piperidine-4-carbonyl)-pyrrolidin-3-yloxy]-2,3-dihydro-benzo[1,4]oxazin-4-yl}-2-methoxy-nicotinonitrile], for which the figures for the pIC50 on PI3K delta and against PI3K alpha were 7.38 and 6.10, respectively.

As to `Cc1cc(N2CCOc3ccc(O[C@H]4CCN(C(=O)c5ccccc5)C4)cc32)cnc1S(C)(=O)=O` [Example B34, {(S)-3-[4-(6-Methanesulfonyl-5-methyl-pyridin-3-yl)-3,4-dihydro-2H-benzo[1,4]oxazin-6-yloxy]-pyrrolidin-1-yl}-phenyl-methanone], the pIC50 on PI3K delta was 7.34; against PI3K alpha, 6.10.

On to `CCC(=O)N1CC[C@H](Oc2ccc3c(c2)N(c2cnc(N)c(OC)c2)CCO3)C1` [Example A14, 1-{(S)-3-[4-(6-Amino-5-methoxy-pyridin-3-yl)-3,4-dihydro-2H-benzo[1,4]oxazin-6-yloxy]-pyrrolidin-1-yl}-propan-1-one], for which the pIC50 was 5.27 against PI3K delta and below 5.04 at PI3K alpha.

Take `COc1cc(N2CCOc3ccc(O[C@H]4CCN(C(=O)C5CCCOC5)C4)cc32)cnc1OC` (stereo partly drawn) [Example B43, {(S)-3-[4-(5,6-Dimethoxy-pyridin-3-yl)-3,4-dihydro-2H-benzo[1,4]oxazin-6-yloxy]-pyrrolidin-1-yl}-(tetrahydro-pyran-3-yl)-methanone]: the figures for the pIC50 against PI3K delta and against PI3K alpha were 7.24 and 6.29, respectively.

In the case of `COc1ncc(N2CCOc3ccc(O[C@H]4CCN(C(=O)C5CCS(=O)(=O)CC5)C4)cc32)cc1C(F)F` [Example B119, {(S)-3-[4-(5-Difluoromethyl-6-methoxy-pyridin-3-yl)-3,4-dihydro-2H-benzo[1,4]oxazin-6-yloxy]-pyrrolidin-1-yl}-(1,1-dioxo-hexahydro-6-thiopyran-4-yl)-methanone], the pIC50 against PI3K delta was 8.22; on PI3K alpha, 6.91.

As for `CCC(=O)N1CC[C@H](Oc2ccc3c(c2)N(c2cncc(S(=O)(=O)N4CCOCC4)c2)CCO3)C1` [Example A26, 1-((S)-3-{4-[5-(Morpholine-4-sulfonyl)-pyridin-3-yl]-3,4-dihydro-2H-benzo[1,4]oxazin-6-yloxy}-pyrrolidin-1-yl)-propan-1-one], the pIC50 is 7.66 against PI3K delta and 6.82 at PI3K alpha.

As for `CCC(=O)N1CC[C@H](Oc2ccc3c(c2)N(c2cncc(S(=O)(=O)N(C)C)c2)CCO3)C1` [Example A39, 5-[6-((S)-1-Propionyl-pyrrolidin-3-yloxy)-2,3-dihydro-benzo[1,4]oxazin-4-yl]-pyridine-3-sulfonic acid dimethylamide], the negative-log IC50 (pIC50) at PI3K delta is 8.05; on PI3K alpha, 7.15.

With `COc1ncc(N2CCOc3ccc(O[C@H]4CCN(C(=O)C5CCS(=O)(=O)C5)C4)cc32)cc1F` (single isomer, unassigned) [Example H11], the pIC50 was 8.10 against PI3K delta and 6.52 at PI3K alpha.

On to `CCC(=O)N1CC[C@H](Oc2ccc3c(c2)N(c2ccc(C)c(S(=O)(=O)N4CCCCC4)c2)CCO3)C1` [Example A24, 1-((S)-3-{4-[4-Methyl-3-(piperidine-1-sulfonyl)-phenyl]-3,4-dihydro-2H-benzo[1,4]oxazin-6-yloxy}-pyrrolidin-1-yl)-propan-1-one], for which the pIC50 is 6.50 on PI3K delta and 5.16 against PI3K alpha.

`COc1cc(N2CCOc3ccc(O[C@H]4CCN(C(=O)C5CCS(=O)(=O)C5)C4)cc32)cnc1OC` (single isomer, unassigned) [Example H9]: the pIC50 against PI3K delta was 7.96; on PI3K alpha, 6.21.

`CCOc1ncc(N2CCOc3ccc(O[C@H]4CCN(C(=O)C5CCOCC5)C4)cc32)cc1C` [Example B2, {(S)-3-[4-(6-Ethoxy-5-methyl-pyridin-3-yl)-3,4dihydro-2H-benzo[1,4]oxazin-6-yloxy]-pyrrolidin-1-yl}-(tetrahydro-pyran-4-yl)-methanone]: the pIC50 against PI3K delta was 7.59; at PI3K alpha it was 5.78.

Turning to `COc1ncc(N2CCOc3ccc(O[C@H]4CCN(C(=O)[C@@H]5CCN(C(C)=O)C5)C4)cc32)cc1C#N` [K, 5-{6-[(S)-1-((R)-1-Acetyl-pyrrolidine-3-carbonyl)-pyrrolidin-3-yloxy]-2,3-dihydro-benzo[1,4]oxazin-4-yl}-2-methoxy-nicotinonitrile], the pIC50 was above 8.52 against PI3K delta and 6.41 on PI3K alpha.

In the case of `COc1ncc(N2CCOc3ccc(O[C@H]4CCN(C(=O)CC(C)(C)C)C4)cc32)cc1C#N` [Example D9, 5-{6-[(S)-1-(3,3-Dimethyl-butyryl)-pyrrolidin-3-yloxy]-2,3-dihydro-benzo[1,4]oxazin-4-yl}-2-methoxy-nicotinonitrile], the pIC50 at PI3K delta was 7.82; against PI3K alpha, 6.31.

For `Cc1cc(N2CCOc3ccc(O[C@H]4CCN(C(=O)c5cncnc5)C4)cc32)cnc1S(C)(=O)=O` [Example B23, {(S)-3-[4-(6-Methanesulfonyl-5-methyl-pyridin-3-yl)-3,4-dihydro-2H-benzo[1,4]oxazin-6-yloxy]-pyrrolidin-1-yl}-pyrimidin-5-yl-methanone], the pIC50 was 7.55 against PI3K delta and 6.00 on PI3K alpha.

Turning to `COc1ncc(N2CCOc3ccc(O[C@H]4CCN(C(=O)C5CCS(=O)(=O)CC5)C4)c(C)c32)cc1C(F)F` [X, {(S)-3-[4-(5-Difluoromethyl-6-methoxy-pyridin-3-yl)-5-methyl-3,4-dihydro-2H-benzo[1,4]oxazin-6-yloxy]-pyrrolidin-1-yl}-(1,1-dioxo-hexahydro-1lambda*6*-thiopyran-4-yl)-methanone], the pIC50 at PI3K delta is 7.21; against PI3K alpha it was 5.45.

Consider `COc1ncc(N2CCOc3ccc(O[C@H]4CCN(C(=O)C5CCS(=O)(=O)C5)C4)cc32)cc1F` (single isomer, unassigned) [Example H12], for which the pIC50 on PI3K delta was 8.15; on PI3K alpha, 6.28.

Consider `COc1cc(N2CCOc3ccc(O[C@H]4CCN(C(=O)C5CCS(=O)(=O)C5)C4)cc32)cnc1OC` (single isomer, unassigned) [Example H10], for which the pIC50 at PI3K delta is 7.74; against PI3K alpha, 6.14.

For the compound `COc1ncc(N2CCOc3ccc(O[C@H]4CCN(C(=O)CCO)C4)cc32)cc1F` [Example B113, 1-{(S)-3-[4-(5-Fluoro-6-methoxy-pyridin-3-yl)-3,4-dihydro-2H-benzo[1,4]oxazin-6-yloxy]-pyrrolidin-1-yl}-3-hydroxy-propan-1-one], the pIC50 was 6.96 against PI3K delta and 5.56 on PI3K alpha.

Turning to `CCC(=O)N1CC[C@H](Oc2ccc3c(c2)N(c2cnc(OC)c(S(=O)(=O)N4CCN(C)CC4)c2)CCO3)C1` [Example A18, 1-((S)-3-{4-[6-Methoxy-5-(4-methyl-piperazine-1-sulfonyl)-pyridin-3-yl]-3,4-dihydro-2H-benzo[1,4]oxazin-6-yloxy}-pyrrolidin-1-yl)-propan-1-one], the pIC50 on PI3K delta is 7.96; on PI3K alpha, 6.05.

`COc1ncc(N2CCOc3ccc(O[C@H]4CCN(C(=O)Cc5ccncc5)C4)cc32)cc1C#N` [S, 2-Methoxy-5-{6-[(S)-1-(2-pyridin-4-yl-acetyl)-pyrrolidin-3-yloxy]-2,3-dihydro-benzo[1,4]oxazin-4-yl}-nicotinonitrile]: the pIC50 was 7.44 at PI3K delta and 6.21 against PI3K alpha.

Regarding `COc1ncc(N2c3cc(O[C@H]4CCN(C(=O)C5CCOCC5)C4)ccc3OCC2C)cc1C#N` (stereo partly drawn) [Example C5, 2-Methoxy-5-{3-methyl-6-[(S)-1-(tetrahydro-pyran-4-carbonyl)-pyrrolidin-3-yloxy]-2,3-dihydro-benzo[1,4]oxazin-4-yl}-nicotinonitrile], the pIC50 at PI3K delta is 7.02; against PI3K alpha, 5.26.

Consider `COc1ncc(N2CCOc3ccc(O[C@H]4CCN(C(=O)C5CCOC5)C4)cc32)cc1C` (stereo partly drawn) [Example B15, {(S)-3-[4-(6-Methoxy-5-methyl-pyridin-3-yl)-3,4-dihydro-2H-benzo[1,4]oxazin-6-yloxy]-pyrrolidin-1-yl}-(tetrahydro-furan-3-yl)-methanone], for which the values for the negative-log IC50 (pIC50) against PI3K delta and against PI3K alpha were 7.51 and 5.58, respectively.

For `Cc1cc(N2CCOc3cnc(O[C@H]4CCN(C(=O)c5cn(C)cn5)C4)cc32)cnc1OC(F)F` [Example E10, {(S)-3-[1-(6-Difluoromethoxy-5-methyl-pyridin-3-yl)-2,3-dihydro-1H-pyrido[3,4-b][1,4]oxazin-7-yloxy]-pyrrolidin-1-yl}-(1-methyl-1H-imidazol-4-yl)-methanone], the pIC50 was 7.89 on PI3K delta and 6.64 at PI3K alpha.

For `COc1ncc(N2CCOc3ccc(O[C@H]4CCN(C(=O)C5CCS(=O)(=O)C5)C4)cc32)cc1Cl` (single isomer, unassigned) [Example H14], the values for the pIC50 on PI3K delta and against PI3K alpha were 8.30 and 6.99, respectively.

Turning to `COc1cc(N2CCOc3ccc(O[C@H]4CCN(C(=O)C5CCS(=O)(=O)C5)C4)cc32)cnc1OC` (stereo partly drawn) [Example B41, {(S)-3-[4-(5,6-Dimethoxy-pyridin-3-yl)-3,4-dihydro-2H-benzo[1,4]oxazin-6-yloxy]-pyrrolidin-1-yl}-(1,1-dioxo-tetrahydro-1lambda*6*-thiophen-3-yl)-methanone], the pIC50 was 7.60 against PI3K delta and 6.38 against PI3K alpha.
